Results published in US4460605A, “2-[2'-Hydroxy-3'-(1,1-dimethylpropylamino)-propoxy ]-β-phenylpropiophenone, its physiologically acceptable acid addition salts, and pharmaceutical compositions” (Helopharm W. Petrik & Co., priority 1981, dated 1984).
Counter-ions that a name gives are not always drawn. Like-named read-outs stand apart in the source and are kept apart here.

Key:
model arrhythmias [1] = assay: Tests with animals having model arrhythmias (known compounds); format: in vivo; settings: average (1-3 mg/kg) intravenous doses
[2] = tested on: CHCl3-adrenalin-model arrhythmia; assay: animal or person; format: in vivo, dog
Method: The antiarrhythmic effect of the compound of formula I was tested in dogs according to the method of Hapke and Prigge, Arzneim.-Forsch. (Drug Res.), loc. cit. A model arrhythmia which was essentially characterized by ventricular extrasystoles at absolute arrhythmia was produced by infusion of chloroform and adrenalin (epinephrine). At the onset of these rhythm disorders the inventive compound was injected intravenously as aqueous solution of the hydrochloride.
. […] (Drug Res.), loc. cit.

[3] = LD50 acute toxicity in dog; settings: in vivo, iv; dog i.v.
[4] = tested on: rhythm disorders produced by occlusion of a branch of the coronary vessels; assay: Antiarrhythmic effect after oral administration, rhythm disorders by occlusion of a branch of the coronary vessels in dogs; format: in vivo, dog; settings: 10 mg/kg intragastric
Method: Again in dogs, the excellent antiarrhythmic effect could be observed after oral administration too. Rhythm disorders were produced by occlusion of a branch of the coronary vessels. The inventive compound was administered intragastrically in the form of the hydrochloride the next day.

circulation parameters = assay: Circulation parameters in dogs (method of Hapke and Prigge); settings: for Diastolic blood pressure (A. femoralis) / Heart beat rate change / Systolic blood pressure (A. femoralis) / Coronary flow volume / Left ventricular peak pressure / Maximum rate of pressure rise (dp/dt) / Peripheral blood flow volume (A. femoralis): dog
Source text: For the test method see H. J. Hapke and E. Prigge, Arzneim.-Forsch.

model arrhythmias [5] = settings: cited from earlier work; for dose at which antiarrhythmic effect appeared: dogs, cats and rabbits
heart rate disorders = settings: human medicine; cited from earlier work

CCC(C)NCC(O)COc1ccccc1C(=O)CCc1ccccc1 (stereo not drawn) [1-methylpropylamino]
antiarrhythmic effect (model arrhythmias [1]): practically no antiarrhythmic effect

CCC(C)(C)NCC(O)COc1ccccc1C(=O)CCc1ccccc1 (stereo not drawn) [diprafenone, 2-[2'-hydroxy-3'-(1,1-dimethylpropylamino)-propoxy]-β-phenylpropiophenone]
minimal effective dose ([2]; Canis lupus familiaris, intravenous, model arrhythmias, read-out: dose showing an antiarrhythmic effect): 0.05 mg/kg | increase of therapeutic quotient as compared to propafenone ([2]; dog, in vivo): 10-20 times

CCC(C)(C)NCC(O)COc1ccccc1C(=O)CCc1ccccc1 (stereo not drawn) [diprafenone-HCl, 2-[2'-hydroxy-3'-(1,1-dimethylpropylamino)-propoxy]-β-phenylpropiophenone-hydrochloride]
LD50 [3]: 10 mg/kg | time to full antiarrhythmic effect ([2]; dogs, 0.05 mg/kg i.v.): ≤ 45 s | antiarrhythmic effect (sinus rhythm in ECG became normal) ([2]; dogs, 0.05 mg/kg i.v., all dogs treated): fully effective | extrasystoles ([4]; 30 minutes after application): no extrasystoles could be observed | extrasystoles ([4]; for 10 minutes after application): observed unchanged | ECG ([4]; for the 24 hours observed): remained normal | effect on peripheral and coronary circulation (circulation parameters; comparable doses): does not have an effect on the peripheral and coronary circulation | Diastolic blood pressure (A. femoralis) (circulation parameters; 0.5 mg/kg i.v.): -16 mm Hg | Heart beat rate change (circulation parameters; 0.5 mg/kg i.v.): -8 min⁻¹ | Systolic blood pressure (A. femoralis) (circulation parameters; 0.5 mg/kg i.v.): -13 mm Hg | Diastolic blood pressure (A. femoralis) (circulation parameters; 1.0 mg/kg i.v.): -24 mm Hg | Heart beat rate change (circulation parameters; 1.0 mg/kg i.v.): -22 min⁻¹ | Systolic blood pressure (A. femoralis) (circulation parameters; 1.0 mg/kg i.v.): -17 mm Hg | Coronary flow volume (circulation parameters; 3.0 mg/kg i.v.): +56% | Diastolic blood pressure (A. femoralis) (circulation parameters; 3.0 mg/kg i.v.): -39 mm Hg | Heart beat rate change (circulation parameters; 3.0 mg/kg i.v.): -24 min⁻¹ | Left ventricular peak pressure (circulation parameters; 3.0 mg/kg i.v.): -46 mm Hg | Maximum rate of pressure rise (dp/dt) (circulation parameters; 3.0 mg/kg i.v.): -30% | Systolic blood pressure (A. femoralis) (circulation parameters; 3.0 mg/kg i.v.): -45 mm Hg | heart beat rate (circulation parameters; doses of 0.5 mg/kg i.v., contrary to propafenone): reduction of the heart beat rate

CCCCNCC(O)COc1ccccc1C(=O)CCc1ccccc1 (stereo not drawn) [n-butylamino]
antiarrhythmic effect (model arrhythmias [1]): practically no antiarrhythmic effect

CCCNCC(O)COc1ccccc1C(=O)CCc1ccccc1 (stereo not drawn) [propafenone-HCl]
Coronary flow volume (circulation parameters; 1.0 mg/kg i.v.): +14% | Left ventricular peak pressure (circulation parameters; 1.0 mg/kg i.v.): -5 mm Hg | Peripheral blood flow volume (A. femoralis) (circulation parameters; 1.0 mg/kg i.v.): +10% | Coronary flow volume (circulation parameters; 3.0 mg/kg i.v.): +30% | Diastolic blood pressure (A. femoralis) (circulation parameters; 3.0 mg/kg i.v.): -40 mm Hg | Left ventricular peak pressure (circulation parameters; 3.0 mg/kg i.v.): -25 mm Hg | Maximum rate of pressure rise (dp/dt) (circulation parameters; 3.0 mg/kg i.v.): -29% | Peripheral blood flow volume (A. femoralis) (circulation parameters; 3.0 mg/kg i.v.): +36% | Systolic blood pressure (A. femoralis) (circulation parameters; 3.0 mg/kg i.v.): -30 mm Hg | Coronary flow volume (circulation parameters; 5.0 mg/kg i.v.): +43% | Left ventricular peak pressure (circulation parameters; 5.0 mg/kg i.v.): -42 mm Hg | Maximum rate of pressure rise (dp/dt) (circulation parameters; 5.0 mg/kg i.v.): -47% | Coronary flow volume (circulation parameters; 10.0 mg/kg i.v.): +67% | Diastolic blood pressure (A. femoralis) (circulation parameters; 10.0 mg/kg i.v.): -60 mm Hg | Left ventricular peak pressure (circulation parameters; 10.0 mg/kg i.v.): -70 mm Hg | Maximum rate of pressure rise (dp/dt) (circulation parameters; 10.0 mg/kg i.v.): -62% | Systolic blood pressure (A. femoralis) (circulation parameters; 10.0 mg/kg i.v.): -65 mm Hg

CCCNCC(O)COc1ccccc1C(=O)CCc1ccccc1 (stereo not drawn) [propafenone]
hemodynamic effect (model arrhythmias [5]; average (1-3 mg/kg) and higher (5 mg/kg) intravenous doses): hypotensive, negative inotropic effect and dilates the coronary arteries | dose at which antiarrhythmic effect appeared (model arrhythmias [5]; intravenous): 1 mg/kg | dose at which antiarrhythmic effect appeared (model arrhythmias [5]; oral): 2 to 10 mg/kg | heart rate (model arrhythmias [5]; doses producing an antiarrhythmic effect): not substantially affected | antiarrhythmic effect (model arrhythmias [5]; only one of the compounds of German Pat. No. 2 001 431): shows an antiarrhythmic effect | effect in therapy of heart rate disorders (heart rate disorders): antiarrhythmic with local anaesthetic, quinidine-like and also β-receptor blocking effect

CC(C)(C)NCC(O)COc1ccccc1C(=O)CCc1ccccc1 (stereo not drawn) [tert-butylamino]
antiarrhythmic effect (model arrhythmias [1]): practically no antiarrhythmic effect
